According to patent publication US9980943B2, “Methods of treating muscular dystrophy” (BOARD OF REGENTS OF THE NEVADA SYSTEM OF HIGHER EDUCATION, …, priority 2013, dated 2018):

Legend:
Type in all cases: cell-based, mouse
[1] = system: β-galactosidase in CMV-LacZ C2C12 myotubes; test: CMV-LacZ secondary screen in C2C12 myotubes (β-Gal stabilizing assay); conditions: for CMV-LACZ in Myotubes (β-galactosidase activity relative to DMSO): CMV-LacZ C2C12 myotubes, 96-well format
Summary of the method: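 β-Gal level was the read-out, measured in a clonal C2C12 line expressing LacZ from a CMV promoter. Dose-response curves used six concentrations, 0.5 μM up to 40 μM, with duplicate points.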

[2] = system: α7 integrin (LacZ reporter in α7+/LacZ myotubes); test: Myotube α7 integrin FDG assay (Burkin assay in myotubes, 96-well); conditions: myotubes
[3] = system: α7 integrin (LacZ reporter in α7βgal+/− myoblasts); test: Myoblast α7+/LacZ integrin FDG assay (Burkin assay in myoblasts, 96-well); conditions: α7+/LacZ myoblasts, 96-well
[4] = 5 uM, C2C12 CMV-LacZ myotubes, fold relative to DMSO
[5] = 10 uM, C2C12 CMV-LacZ myotubes, fold relative to DMSO
[6] = 20 uM, C2C12 CMV-LacZ myotubes, fold relative to DMSO
[7] = 40 uM, C2C12 CMV-LacZ myotubes, fold relative to DMSO

SMILES	Burkin Assay in Myotubes (signal relative to DMSO) ([2]; 0.5 uM)	Burkin Assay in Myotubes (signal relative to DMSO) ([2]; 1 uM)	Burkin Assay in Myotubes (signal relative to DMSO) ([2]; 5 uM)	Burkin Assay in Myotubes (signal relative to DMSO) ([2]; 10 uM)	CMV-LACZ in Myotubes, signal relative to DMSO [1, 4]	CMV-LACZ in Myotubes, signal relative to DMSO [1, 5]	CMV-LACZ in Myotubes, signal relative to DMSO [1, 6]	CMV-LACZ in Myotubes, signal relative to DMSO [1, 7]	Burkin Assay in Myotubes, α7 integrin LacZ reporter signal relative to DMSO ([2]; 0.5 uM)	Burkin Assay in Myotubes, α7 integrin LacZ reporter signal relative to DMSO ([2]; 1 uM)	Burkin Assay in Myotubes, α7 integrin LacZ reporter signal relative to DMSO ([2]; 5 uM)	Burkin Assay in Myotubes, α7 integrin LacZ reporter signal relative to DMSO ([2]; 10 uM)	Burkin Assay in Myotubes, α7 integrin LacZ reporter signal relative to DMSO ([2]; 20 uM)	Burkin Assay in Myotubes, α7 integrin LacZ reporter signal relative to DMSO ([2]; 40 uM)	Burkin Assay in Myoblasts, signal relative to DMSO ([3]; 0.5 uM)	Burkin Assay in Myoblasts, signal relative to DMSO ([3]; 1 uM)	Burkin Assay in Myoblasts, signal relative to DMSO ([3]; 5 uM)	Burkin Assay in Myoblasts, signal relative to DMSO ([3]; 10 uM)	Burkin Assay in Myoblasts, signal relative to DMSO ([3]; 20 uM)	Burkin Assay in Myoblasts, signal relative to DMSO ([3]; 40 uM)	further results
CCS(=O)(=O)N1CCCC(C(=O)c2ccc(OC)cc2C)C1 (centres unmarked) [MLS000693747-01]	1.061	0.7194	1.433	0.9111																	CMV-LACZ in Myotubes (β-galactosidase activity relative to DMSO) ([1]; 5 uM): 0.9962; CMV-LACZ in Myotubes (β-galactosidase activity relative to DMSO) ([1]; 10 uM): 0.9523; CMV-LACZ in Myotubes (β-galactosidase activity relative to DMSO) ([1]; 20 uM): 0.9693; CMV-LACZ in Myotubes (β-galactosidase activity relative to DMSO) ([1]; 40 uM): 1.043; Burkin Assay in Myotubes (signal relative to DMSO) ([2]; 20 uM): 1.122; Burkin Assay in Myotubes (signal relative to DMSO) ([2]; 40 uM): 1.0456; Burkin Assay in Myoblasts, value relative to DMSO ([3]; 0.5 uM): 1.114; Burkin Assay in Myoblasts, value relative to DMSO ([3]; 1 uM): 1.036; Burkin Assay in Myoblasts, value relative to DMSO ([3]; 5 uM): 1.0596; Burkin Assay in Myoblasts, value relative to DMSO ([3]; 10 uM): 1.088; Burkin Assay in Myoblasts, value relative to DMSO ([3]; 20 uM): 0.8796; Burkin Assay in Myoblasts, value relative to DMSO ([3]; 40 uM): 0.9175
COc1ccc(-c2cc(COc3ccccc3)on2)cc1 [MLS000695955-01]																					fold induction at 5 µM ([1]; Mus musculus, C2C12, read-out: CMV-LACZ in Myotubes, signal relative to DMSO, 5 uM, C2C12 CMV-LacZ myotubes, fold relative to DMSO): 0.789; fold induction at 10 µM ([1]; Mus musculus, C2C12, read-out: CMV-LACZ in Myotubes, signal relative to DMSO, 10 uM, C2C12 CMV-LacZ myotubes, fold relative to DMSO): 0.896; fold induction at 20 µM ([1]; Mus musculus, C2C12, read-out: CMV-LACZ in Myotubes, signal relative to DMSO, 20 uM, C2C12 CMV-LacZ myotubes, fold relative to DMSO): 0.992; fold induction at 40 µM ([1]; Mus musculus, C2C12, read-out: CMV-LACZ in Myotubes, signal relative to DMSO, 40 uM, C2C12 CMV-LacZ myotubes, fold relative to DMSO): 0.93; fold induction at 0.5 µM ([2]; Mus musculus, Myotube, 0.5 uM, read-out: Burkin Assay in Myotubes, α7 integrin LacZ reporter signal relative to DMSO): 0.945; fold induction at 1 µM ([2]; Mus musculus, Myotube, 1 uM, read-out: Burkin Assay in Myotubes, α7 integrin LacZ reporter signal relative to DMSO): 1.03; fold induction at 5 µM ([2]; Mus musculus, Myotube, 5 uM, read-out: Burkin Assay in Myotubes, α7 integrin LacZ reporter signal relative to DMSO): 1.15; fold induction at 10 µM ([2]; Mus musculus, Myotube, 10 uM, read-out: Burkin Assay in Myotubes, α7 integrin LacZ reporter signal relative to DMSO): 1.32; fold induction at 20 µM ([2]; Mus musculus, Myotube, 20 uM, read-out: Burkin Assay in Myotubes, α7 integrin LacZ reporter signal relative to DMSO): 1.23; fold induction at 40 µM ([2]; Mus musculus, Myotube, 40 uM, read-out: Burkin Assay in Myotubes, α7 integrin LacZ reporter signal relative to DMSO): 1.39; fold induction at 0.5 µM ([3]; Mus musculus, Myoblast, 48 h, 0.5 uM, read-out: Burkin Assay in Myoblasts, signal relative to DMSO): 0.902; fold induction at 1 µM ([3]; Mus musculus, Myoblast, 48 h, 1 uM, read-out: Burkin Assay in Myoblasts, signal relative to DMSO): 0.871; fold induction at 5 µM ([3]; Mus musculus, Myoblast, 48 h, 5 uM, read-out: Burkin Assay in Myoblasts, signal relative to DMSO): 1.08; fold induction at 10 µM ([3]; Mus musculus, Myoblast, 48 h, 10 uM, read-out: Burkin Assay in Myoblasts, signal relative to DMSO): 1.06; fold induction at 20 µM ([3]; Mus musculus, Myoblast, 48 h, 20 uM, read-out: Burkin Assay in Myoblasts, signal relative to DMSO): 0.961; fold induction at 40 µM ([3]; Mus musculus, Myoblast, 48 h, 40 uM, read-out: Burkin Assay in Myoblasts, signal relative to DMSO): 1.03
COc1ccc(N2CCN(CCC3Oc4cc([N+](=O)[O-])ccc4NC3=O)CC2)cc1 (centres unmarked) [MLS000696445-01]					1.268	1.011	1.122	0.924	0.8602	0.8637	0.9714	0.625	0.5843	0.8433	1.013	0.5621	0.867	0.8807	0.813	0.807	
O=C(N/N=C/c1cn[nH]c1-c1ccc(F)cc1)c1ccncc1 [MLS000698686-01]	0.8838	0.6159	1.013	0.966	0.8364	0.9727	0.8864	0.8864													Burkin Assay in Myotubes (signal relative to DMSO) ([2]; 20 uM): 0.6986; Burkin Assay in Myotubes (signal relative to DMSO) ([2]; 40 uM): 0.9722; Burkin Assay in Myoblasts, value relative to DMSO ([3]; 0.5 uM): 1.037; Burkin Assay in Myoblasts, value relative to DMSO ([3]; 1 uM): 1.018; Burkin Assay in Myoblasts, value relative to DMSO ([3]; 5 uM): 1.054; Burkin Assay in Myoblasts, value relative to DMSO ([3]; 10 uM): 1.075; Burkin Assay in Myoblasts, value relative to DMSO ([3]; 20 uM): 0.8456; Burkin Assay in Myoblasts, value relative to DMSO ([3]; 40 uM): 0.8252
CCOc1ccc(NC(=O)CN2C(=O)S/C(=C/c3cccn3C)C2=O)cc1 [MLS000702680-01]					1.008	1.107	1.233	1.181	1.016	0.9196	0.9678	0.7773	0.8074	0.7464	0.845	0.8804	0.8623	0.8908	0.6925	0.6264	
O=C(Nc1ccccc1F)c1ccc([N+](=O)[O-])s1 [MLS000703499-01]					0.9313	0.9968	0.689	0.769	0.9725	0.8809	1.059	0.8518	1.101	0.4494	0.7093	1.017	0.9278	0.7632	0.4465	0.1043	
O=C(/C(=C(/[O-])c1ccccc1)[n+]1ccccc1)c1ccc([N+](=O)[O-])cc1 [MLS000705922-01]	0.8984	1.137	0.8511	0.9544																	CMV-LACZ in Myotubes (β-galactosidase activity relative to DMSO) ([1]; 5 uM): 0.8776; CMV-LACZ in Myotubes (β-galactosidase activity relative to DMSO) ([1]; 10 uM): 0.9306; CMV-LACZ in Myotubes (β-galactosidase activity relative to DMSO) ([1]; 20 uM): 0.9302; CMV-LACZ in Myotubes (β-galactosidase activity relative to DMSO) ([1]; 40 uM): 0.9947; Burkin Assay in Myotubes (signal relative to DMSO) ([2]; 20 uM): 0.9072; Burkin Assay in Myotubes (signal relative to DMSO) ([2]; 40 uM): 1.039; Burkin Assay in Myoblasts, value relative to DMSO ([3]; 0.5 uM): 0.9627; Burkin Assay in Myoblasts, value relative to DMSO ([3]; 1 uM): 1.02; Burkin Assay in Myoblasts, value relative to DMSO ([3]; 5 uM): 0.7282; Burkin Assay in Myoblasts, value relative to DMSO ([3]; 10 uM): 0.7283; Burkin Assay in Myoblasts, value relative to DMSO ([3]; 20 uM): 0.8892; Burkin Assay in Myoblasts, value relative to DMSO ([3]; 40 uM): 0.8783
Cc1cc(C)nc(NC(=O)c2ccc(Cl)cc2Cl)n1 [MLS000706349-01]					0.9465	0.9553	1.0245	1.1355	1.193	1.008	0.9738	0.9294	1.073	0.9239	1.086	0.9797	0.8593	0.8434	0.8584	0.6533	
